# In US20230081720A1, “MCL-1 INHIBITOR ANTIBODY-DRUG CONJUGATES AND METHODS OF USE” (NOVARTIS AG, priority 2019, published 2023):
# Key:
# [1] = tested on: Karpas422 diffuse large B-cell lymphoma model; experiment: Karpas422 xenograft tumor growth inhibition; format: in vivo, mice; conditions: 50 MK 4ON/3OFF/4ON, PO, alone
# Protocol: The in vivo therapeutic effect of a CD74-targeting ADC formulated in Phosphate-Buffered Saline (PBS) was determined in Karpas422 diffuse large B-cell lymphoma model after intravenous (IV) administration.
# Karpas422 cells, obtained from ATCC, were cultured in RPMI supplemented with 20% FBS. Cells were resuspended in 100% Matrigel (BD Biosciences) and 0.1 ml containing 11×10^6 cells were subcutaneously inoculated into the right flank of female NSG mice, provided by Charles River. When tumors reached the appropriate volume, mice were randomized, 6 animals per group, using Easy stat software. IgG1-Linker-Payload Fc silent, anti-CD74_CysmAb Fc silent and anti-CD74_CysmAb Fc silent_L5-P1 (30 mg/kg) were injected once IV in PBS. Venetoclax (synthetized at the Servier Research Institute—IdRS) was formulated in PEG/EtOH/Phosal (Polyethylene glycol/ethanol/phosal, 30/10/60) and administered per os (PO) daily on weekdays (50 mpk, 4ON/3OFF/4ON). Mice body weight was monitored three times a week and tumor size measured using electronic calipers. Tumor volume was estimated by measuring the minimum and maximum tumor diameters using the formula: (minimum diameter)^2(maximum diameter)/2. The last day with at least half of control animals still present in the study (d23), tumor growth inhibition was calculated using the formula:
# With DTV (Delta Tumor Volume) at Dx, calculated being TV at Dx-TV at Randomization. Response was evaluated as it follows: CR (Complete Response) if tumor size was <25 mm^3 for at least three measurements, PR (Partial Response) if tumor size was comprised between 25 mm^3 and 168.3 mm^3 (half of the starting size) for at least three measurements. Mice were sacrificed at the first measurement for which tumor volume exceeded 2000 mm^3 or at the first signs of animal health deterioration. […] SCID mice were maintained according to institutional guidelines.
# [2] = tested on: Nomo1 acute myeloid leukemia model; experiment: Nomo1 xenograft tumor growth inhibition; format: in vivo; conditions: female SCID mice, 50 MK 4ON/3OFF/4ON, PO, alone, day 9
# Protocol: The in vivo therapeutic effect of a CD74-targeting ADC formulated in Phosphate-Buffered Saline (PBS) is determined in Nomo1 acute myeloid leukemia model after intravenous (IV) administration. The follow compounds were tested: anti-CD74_CysmAb Fc silent_L5-P1, anti-CD74_CysmAb Fc silent and IgG1-Linker-Payload Fc silent.
# Nomo1 cells, obtained from DSMZ, were cultured in RPMI supplemented with 10% FBS. 0.1 ml containing 5×10^6 cells were subcutaneously inoculated into the right flank of female SCID mice, provided by Charles River. When tumors reached the appropriate volume, mice were randomized, 6 animals per group, using Easy stat software. IgG1-Linker-Payload Fc silent, anti-CD74_CysmAb Fc silent and anti-CD74_CysmAb Fc silent_L5-P1 (30 mg/kg) were injected once IV in PBS. Venetoclax (synthetized at the Servier Research Institute—IdRS) was formulated in PEG/EtOH/Phosal (Polyethylene glycol/ethanol/phosal, 30/10/60) and administered per os (PO) daily on weekdays (50 mpk, 4ON/3OFF/4ON). Mice body weight was monitored three times a week and tumor size measured using electronic calipers. […] The last day with at least half of animals of all groups still present in the study (d9), tumor growth inhibition was calculated using the formula: […]
# With DTV (Delta Tumor Volume) at Dx, calculated being TV at Dx-TV at Randomization. […]
# [3] = tested on: Monomac1 acute myeloid leukemia model; experiment: Monomac1 xenograft tumor growth inhibition; format: in vivo, mice; conditions: 50MK 2ON/2OFF/5ON/2OFF/4ON, PO, alone
# Protocol: The in vivo therapeutic effect of a CD74-targeting ADC formulated in Phosphate-Buffered Saline (PBS) was determined in Monomac1 acute myeloid leukemia model after intravenous (IV) administration. The following compounds were tested: CD74-targeting ADC is anti-CD74_CysmAb Fc silent_L5-P1, IgG1-Linker-Payload Fc silent, and anti-CD74_CysmAb Fc silent.
# Monomac1 cells, obtained from DSMZ, were cultured in RPMI supplemented with 10% FBS. 0.1 ml containing 5×10^6 cells were subcutaneously inoculated into the right flank of female SCID mice, provided by Charles River. When tumors reached the appropriate volume, mice were randomized, 6 animals per group, using Easy stat software. IgG1-Linker-Payload Fc silent, anti-CD74_CysmAb Fc silent and anti-CD74_CysmAb Fc silent_L5-P1 (30 mg/kg) were injected once IV in PBS. Venetoclax (synthetized at the Servier Research Institute—IdRS) was formulated in PEG/EtOH/Phosal (Polyethylene glycol/ethanol/phosal, 30/10/60) and administered per os (PO) daily on weekdays (50 mpk, 2ON/2OFF/5ON/2OFF/4ON). Mice body weight was monitored three times a week and tumor size measured using electronic calipers. Tumor volume was estimated by measuring the minimum and maximum tumor diameters using the formula: (minimum diameter)^2(maximum diameter)/2. The last day with at least half of control animals still present in the study (d16), tumor growth inhibition was calculated using the formula:
# With DTV (Delta Tumor Volume) at Dx, calculated being TV at Dx-TV at Randomization. […] Mice were sacrificed at the first measurement for which tumor volume exceeded 2000 mm^3 or at the first signs of animal health deterioration. […] SCID mice were maintained according to institutional guidelines.
# [4] = tested on: EOL1 human acute myeloid (eosinophilic) leukemia xenograft model; experiment: EOL1 xenograft, CD74-L5-P1 Fc silent with venetoclax (Example 14); format: in vivo, mice
# Protocol: EOL1 luciferase transfected cells were cultured at 37° C. in an atmosphere of 5% CO2 in air in RPMI1640 (BioConcept Ltd. Amimed) supplemented with 10% FCS (BioConcept Ltd. Amimed, #2-01 F30-1), 2 mM L-glutamine (BioConcept Ltd. Amimed, #5-10K00-H) and 1 mM sodium pyruvate (BioConcept Ltd. Amimed, #5-60F00-H), 10 mM HEPES (Gibco #11560496). To establish EOL1 xenografts cells were harvested and re-suspended in HBSS (Gibco, #14175) before injecting 100 μL containing 5×10^6 cells subcutaneously in the flanks of female SCID beige mice (Charles River, Germany). Tumor growth was monitored regularly post cell inoculation and animals were randomized into treatment groups (n=6) with a mean tumor volume of about 130 mm^3. CD74-L5-P1 Fc silent, isotype IgG1 ADC Fc silent and CD74 Fc silent antibody were administered intravenously (iv) once at the start of treatment at the doses indicated in FIG. 12 either alone or in combination with venetoclax which was administered orally (po) daily (qd) at 50 mg/kg. Doses were adjusted to individual mouse body weights. The iv dose volume was 10 ml/kg and each ADC was dissolved in 0.9% (w/v) NaCl in water. Tumor volume data on day 10 post treatment were analyzed statistically using Kruskal-Wallis rank sum test (Indigo Software). When applicable, results are presented as mean±SEM. As a measure of efficacy the % T/C value is calculated on day 10 according to:
# (Δtumor volume^treated/Δtumor volume^control)*100
# Tumor regression was calculated according to:
# −(Δtumor volume^treated/tumor volume^treated at start)*100
# Where Δtumor volumes represent the mean tumor volume on the evaluation day minus the mean tumor volume at the start of the experiment.
compound,measurement,setting,value
CC1(C)CCC(CN2CCN(c3ccc(C(=O)NS(=O)(=O)c4ccc(NCC5CCOCC5)c([N+](=O)[O-])c4)c(Oc4cnc5[nH]ccc5c4)c3)CC2)=C(c2ccc(Cl)cc2)C1 [Venetoclax],% CR,[1],0%
same,% PR,[1],0%
same,% TGI (d23),"[1]; female NSG mice, day 23",31.1%
same,% TGI (d9),[2],26.2%
same,% CR,[3],0%
same,% PR,[3],0%
same,% TGI (d16),"[3]; female SCID mice, day 16",4.5%
same,T/C (%),"[4]; 50 mg/kg p.o. qd + vehicle for ADC, day 10",90%
same,ΔTumor volume (mm^3),"[4]; 50 mg/kg p.o. qd + vehicle for ADC, day 10, mean",977 mm^3
same,antitumor effect (in words),[4]; 50 mg/kg po qd alone,Limited efficacy
